From US20230242530A1, “8-(AZETIDIN-1-YL)-[1,2,4]TRIAZOLO[1,5-A]PYRIDINYL COMPOUNDS, COMPOSITIONS AND METHODS OF USE THEREOF” (Genentech, Inc., priority 2016, published 2023)

Legend:
[1] = molecular target: T1, isolated recombinant JAK1 kinase domain (Homo sapiens, UniProt P23458); assay: JAK enzyme assay, JAK1 kinase domain (Caliper LabChip); format: biochemical; conditions: 1.5 nM JAK1, ATP 25 μM, Morrison tight binding model
T1 construct: isolated recombinant JAK1 and JAK2 kinase domain
Experimental: (§1) JAK Enzyme Assays were Carried Out as Follows:
(§2) The activity of the isolated recombinant JAK1 and JAK2 kinase domain was measured by monitoring phosphorylation of a peptide derived from JAK3 (Val-Ala-Leu-Val-Asp-Gly-Tyr-Phe-Arg-Leu-Thr-Thr, fluorescently labeled on the N-terminus with 5-carboxyfluorescein) using the Caliper LabChip® technology (Caliper Life Sciences, Hopkinton, Mass.). […] Reactions were incubated at 22 °C in 384-well polypropylene microtiter plates for 30 minutes and then stopped by addition of 25 μL of an EDTA containing solution (100 mM HEPES buffer (pH 7.2), 0.015% Brij-35, 150 mM EDTA), resulting in a final EDTA concentration of 50 mM. After termination of the kinase reaction, the proportion of phosphorylated product was determined as a fraction of total peptide substrate using the Caliper LabChip® 3000 according to the manufacturer's specifications. Ki values were then determined using the Morrison tight binding model (Morrison, J. F., Biochim. Biophys. Acta. 185:269-296 (1969); William, J. W. and Morrison, J. F., Meth. Enzymol., 63:437-467 (1979)) modified for ATP-competitive inhibition [Ki=Ki,app/(1+[ATP]/Km,app)].

[2] = tested on: JAK1-dependent STAT6 phosphorylation downstream of IL-13 stimulation in BEAS-2B cells; assay: JAK1 pathway assay in cell lines: IL-13 p-STAT6 BEAS-2B; format: cell-based; conditions: BEAS-2B human bronchial epithelial cells, 1 hr compound, IL-13 15 min, MSD readout
Experimental: JAK1 Pathway Assay in Cell Lines was Carried Out as Follows:
Inhibitor potency (EC50) was determined in cell-based assays designed to measure JAK1 dependent STAT phosphorylation. As noted above, inhibition of IL-4, IL-13, and IL-9 signalling by blocking the Jak/Stat signaling pathway can alleviate asthmatic symptoms in pre-clinical lung inflammation models (Mathew et al., 2001, J Exp Med 193(9): 1087-1096; Kudlacz et. al., 2008, Eur J. Pharmacol 582(1-3): 154-161).
In one assay approach, TF-1 human erythroleukemia cells obtained from the American Type Culture Collection (ATCC; Manassas, Va.) were used to measure JAK1-dependent STAT6 phosphorylation downstream of IL-13 stimulation. Prior to use in the assays, TF-1 cells were starved of GM-CSF overnight in OptiMEM medium (Life Technologies, Grand Island, N.Y.) supplemented with 0.5% charcoal/dextran stripped fetal bovine serum (FBS), 0.1 mM non-essential amino acids (NEAA), and 1 mM sodium pyruvate. The assays were run in 384-well plates in serum-free OptiMEM medium using 300,000 cells per well. In a second assay approach, BEAS-2B human bronchial epithelial cells obtained from ATCC were plated at 100,000 cells per well of a 96-well plate one day prior to the experiment. The BEAS-2B assay was run in complete growth medium (bronchial epithelial basal medium plus bulletkit; Lonza; Basel, Switzerland).
Test compounds were serially diluted 1:2 in DMSO and then diluted 1:50 in medium just before use. Diluted compounds were added to the cells, for a final DMSO concentration of 0.2%, and incubated for 30 mi (for the TF-1 assay) or 1 hr (for the BEAS-2B assay) at 37 QC. Then, cells were stimulated with human recombinant cytokine at their respective EC90 concentrations, as previously determined for each individual lot. Cells were stimulated with IL-13 (R&D Systems, Minneapolis, Minn.) for 15 min at 37 °C. The TF-1 cell reactions were stopped by the direct addition of 10× lysis buffer (Cell Signaling Technologies, Danvers, Mass.), whereas the BEAS-2B cell incubations were halted by the removal of medium and addition of 1× lysis buffer. The resultant samples were frozen in the plates at −80 °C. Compound mediated inhibition of STAT6 phosphorylation was measured in the cell lysates using MesoScale Discovery (MSD) technology (Gaithersburg, Md.). EC50 values were determined as the concentration of compound required for 50% inhibition of STAT phosphorylation relative to that measured for the DMSO control.

[3] = molecular target: T2, isolated recombinant JAK2 kinase domain (Homo sapiens, UniProt O60674); assay: JAK enzyme assay, JAK2 kinase domain (Caliper LabChip); format: biochemical; conditions: 0.2 nM JAK2, ATP 25 μM, Morrison tight binding model
T2 construct: isolated recombinant JAK1 and JAK2 kinase domain
Experimental: as §1, §2

T1 sequence (P23458 875-1153 limits assumed): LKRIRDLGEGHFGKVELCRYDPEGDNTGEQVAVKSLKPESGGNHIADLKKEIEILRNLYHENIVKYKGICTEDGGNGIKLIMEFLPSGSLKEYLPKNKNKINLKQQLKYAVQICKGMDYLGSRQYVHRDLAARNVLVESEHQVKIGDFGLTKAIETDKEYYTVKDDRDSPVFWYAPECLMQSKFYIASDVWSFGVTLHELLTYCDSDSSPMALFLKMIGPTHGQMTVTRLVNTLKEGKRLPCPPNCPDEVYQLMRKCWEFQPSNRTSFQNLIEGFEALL
T2 sequence (O60674 849-1124 limits assumed): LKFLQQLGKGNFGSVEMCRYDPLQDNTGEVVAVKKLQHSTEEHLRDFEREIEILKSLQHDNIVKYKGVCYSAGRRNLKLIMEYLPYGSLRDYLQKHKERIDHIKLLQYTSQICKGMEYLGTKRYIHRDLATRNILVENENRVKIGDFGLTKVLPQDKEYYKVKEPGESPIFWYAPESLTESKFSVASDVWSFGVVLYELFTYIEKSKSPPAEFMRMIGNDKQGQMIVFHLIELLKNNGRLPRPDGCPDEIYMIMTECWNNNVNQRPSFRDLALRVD

Compound | Ki [1] | EC50 [2] | Ki [3]
CCc1cnn(C2(CC#N)CN(c3cccn4nc(Nc5ccc6c(c5)CCN([C@@H]5CCOC5)C6)nc34)C2)c1 (stereo in doubt) [Example 61, 2-[3-(4-ethylpyrazol-1-yl)-1-[2-[[2-[rac-(3R)-tetrahydrofuran-3-yl]-3,4-dihydro-1H-isoquinolin-6-yl]amino]-[1,2,4]triazolo[1,5-a]pyridin-8-yl]azetidin-3-yl]acetonitrile] | 0.4 nM | 8 nM | 0.4 nM
CCc1cnn(C2(CC#N)CN(c3cccn4nc(Nc5ccc6c(c5)CCN([C@H]5CCOC5)C6)nc34)C2)c1 (stereo in doubt) [Example 62, 2-[3-(4-ethylpyrazol-1-yl)-1-[2-[[2-[rac-(3S)-tetrahydrofuran-3-yl]-3,4-dihydro-1H-isoquinolin-6-yl]amino]-[1,2,4]triazolo[1,5-a]pyridin-8-yl]azetidin-3-yl]acetonitrile] | 0.4 nM | 49 nM | 0.4 nM
CCc1cnn(C2(CC#N)CN(c3cccn4nc(Nc5cnn(CC(=O)N6CCN(C)CC6)c5)nc34)C2)c1 [Example 1, 2-[3-(4-ethyl-1H-pyrazol-1-yl)-1-[2-([1-[2-(4-methylpiperazin-1-yl)-2-oxoethyl]-1H-pyrazol-4-yl]amino)-[1,2,4]triazolo[1,5-a]pyridin-8-yl]azetidin-3-yl]acetonitrile] | 0.8 nM | 29 nM | 2 nM
CCc1cnn(C2(CC#N)CN(c3cccn4nc(Nc5cn[nH]c5)nc34)C2)c1 [Example 2, 2-[3-(4-ethyl-1H-pyrazol-1-yl)-1-[2-[(1H-pyrazol-4-yl)amino]-[1,2,4]triazolo[1,5-a]pyridin-8-yl]azetidin-3-yl]acetonitrile] | 17.5 nM | – | 32.8 nM
CCc1cnn(C2(CC#N)CN(c3cccn4nc(Nc5cnn(CCCO)c5)nc34)C2)c1 [Example 3, 2-[3-(4-ethyl-1H-pyrazol-1-yl)-1-(2-[[1-(3-hydroxypropyl)-1H-pyrazol-4-yl]amino]-[1,2,4]triazolo[1,5-a]pyridin-8-yl)azetidin-3-yl]acetonitrile] | 40.2 nM | – | 64 nM
CCc1cnn(C2(CC#N)CN(c3cccn4nc(Nc5cnn(CC(=O)N6CCC(NCC7(C#N)CC7)CC6)c5)nc34)C2)c1 [Example 4, 1-[[(1-[2-[4-([8-[3-(cyanomethyl)-3-(4-ethyl-1H-pyrazol-1-yl)azetidin-1-yl]-[1,2,4]triazolo[1,5-a]pyridin-2-yl]amino)-1H-pyrazol-1-yl]acetyl]piperidin-4-yl)amino]methyl]cyclopropane-1-carbonitrile] | 0.6 nM | 39 nM | 4.6 nM
CCc1cnn(C2(CC#N)CN(c3cccn4nc(Nc5cccc(CC(=O)N6CCN(C)CC6)c5)nc34)C2)c1 [Example 5, 2-[3-(4-ethyl-1H-pyrazol-1-yl)-1-[2-([3-[2-(4-methylpiperazin-1-yl)-2-oxoethyl]phenyl]amino)-[1,2,4]triazolo[1,5-a]pyridin-8-yl]azetidin-3-yl]acetonitrile] | 1.9 nM | 120 nM | 3.1 nM
CN1CCN(C(=O)Cn2cc(Nc3nc4c(N5CC(CC#N)(n6cc(Br)cn6)C5)cccn4n3)cn2)CC1 [Example 6, 2-[3-(4-bromo-1H-pyrazol-1-yl)-1-[2-([1-[2-(4-methylpiperazin-1-yl)-2-oxoethyl]-1H-pyrazol-4-yl]amino)-[1,2,4]triazolo[1,5-a]pyridin-8-yl]azetidin-3-yl]acetonitrile] | 9.5 nM | – | 15.7 nM
CN1CCN(C(=O)Cn2cc(Nc3nc4c(N5CC(CC#N)(c6ccc(Cl)cc6)C5)cccn4n3)cn2)CC1 [Example 7, 2-[3-(4-chlorophenyl)-1-[2-[[1-[2-(4-methylpiperazin-1-yl)-2-oxo-ethyl]pyrazol-4-yl]amino]-[1,2,4]triazolo[1,5-a]pyridin-8-yl]azetidin-3-yl]acetonitrile] | 37.2 nM | – | 50.4 nM
CN1CCN(C(=O)Cn2cc(Nc3nc4c(N5CC(CC#N)(N6CCOCC6)C5)cccn4n3)cn2)CC1 [Example 8] | 0.3 nM | 12 nM | 1.5 nM
CN1CCN(C(=O)Cn2cc(Nc3nc4c(N5CC(CC#N)(N6CCN(C)CC6)C5)cccn4n3)cn2)CC1 [Example 9, 2-[3-(4-methylpiperazin-1-yl)-1-[2-[[1-[2-(4-methylpiperazin-1-yl)-2-oxo-ethyl]pyrazol-4-yl]amino]-[1,2,4]triazolo[1,5-a]pyridin-8-yl]azetidin-3-yl]acetonitrile] | 0.6 nM | 34 nM | 2.5 nM
Cc1cnn(C2(CC#N)CN(c3cccn4nc(Nc5cnn(CC(=O)N6CCN(C)CC6)c5)nc34)C2)c1 [Example 10] | 0.4 nM | 18 nM | 1.5 nM
CN1CCN(C(=O)Cn2cc(Nc3nc4c(N5CC(CC#N)(N6CCC(C(F)(F)F)CC6)C5)cccn4n3)cn2)CC1 [Example 11] | 1.3 nM | 37 nM | 5.8 nM
CN1CCN(C(=O)Cn2cc(Nc3nc4c(N5CC(CC#N)(N6CCC(F)(F)CC6)C5)cccn4n3)cn2)CC1 [Example 12, 2-[3-(4,4-difluoro-1-piperidyl)-1-[2-[[1-[2-(4-methylpiperazin-1-yl)-2-oxo-ethyl]pyrazol-4-yl]amino]-[1,2,4]triazolo[1,5-a]pyridin-8-yl]azetidin-3-yl]acetonitrile] | 0.9 nM | 27 nM | 2.4 nM
CN1CCN(C(=O)Cn2cc(Nc3nc4c(N5CC(CC#N)(N6CCC(C#N)CC6)C5)cccn4n3)cn2)CC1 [Example 13, 1-[3-(cyanomethyl)-1-[2-[[1-[2-(4-methylpiperazin-1-yl)-2-oxo-ethyl]pyrazol-4-yl]amino]-[1,2,4]triazolo[1,5-a]pyridin-8-yl]azetidin-3-yl]piperidine-4-carbonitrile] | 1.6 nM | 82 nM | 5.3 nM
CSc1ccc(C2(CC#N)CN(c3cccn4nc(Nc5cnn(CC(=O)N6CCN(C)CC6)c5)nc34)C2)cc1 [Example 14] | 1.8 nM | 72 nM | 4.5 nM
CN1CCN(C(=O)Cn2cc(Nc3nc4c(N5CC(CC#N)(n6cc(C(F)(F)F)cn6)C5)cccn4n3)cn2)CC1 [Example 15] | 2.2 nM | > 1000 nM | 9.4 nM
CC(C)Sc1ccc(C2(CC#N)CN(c3cccn4nc(Nc5cnn(CC(=O)N6CCN(C)CC6)c5)nc34)C2)cc1 [Example 16, 2-[3-(4-isopropylsulfanylphenyl)-1-[2-[[1-[2-(4-methylpiperazin-1-yl)-2-oxo-ethyl]pyrazol-4-yl]amino]-[1,2,4]triazolo[1,5-a]pyridin-8-yl]azetidin-3-yl]acetonitrile] | 0.6 nM | 19 nM | 3.7 nM
CN1CCN(C(=O)Cn2cc(Nc3nc4c(N5CC(CC#N)(n6cc(I)cn6)C5)cccn4n3)cn2)CC1 [Example 89, 2-[3-(4-iodopyrazol-1-yl)-1-[2-[[1-[2-(4-methylpiperazin-1-yl)-2-oxo-ethyl]pyrazol-4-yl]amino]-[1,2,4]triazolo[1,5-a]pyridin-8-yl]azetidin-3-yl]acetonitrile] | 6.4 nM | – | 18.8 nM
CCc1cnn(C2(CC#N)CN(c3nccn4nc(Nc5cn[nH]c5)nc34)C2)c1 [Example 153, 2-(1-(2-((1H-pyrazol-4-yl)amino)-[1,2,4]triazolo[1,5-a]pyrazin-8-yl)-3-(4-ethyl-1H-pyrazol-1-yl)azetidin-3-yl)acetonitrile] | 9 nM | – | 15.5 nM
